Molecular target: T1, PtMAC2p (Pseudozyma tsukubaensis, UniProt A0A2Z6ERP5)
T1 construct: gene PtMAC2
Test: DTNB (Ellman) assay of CoA release, absorbance at […] nm
Format: biochemical
Conditions: 0.1 mM lauroyl-CoA; co-substrate 1 mM mono-acylated MEL-D; 1 mM DTNB; 50 mM sodium phosphate pH 7.2, 25 °C

T1 sequence (A0A2Z6ERP5 1-549): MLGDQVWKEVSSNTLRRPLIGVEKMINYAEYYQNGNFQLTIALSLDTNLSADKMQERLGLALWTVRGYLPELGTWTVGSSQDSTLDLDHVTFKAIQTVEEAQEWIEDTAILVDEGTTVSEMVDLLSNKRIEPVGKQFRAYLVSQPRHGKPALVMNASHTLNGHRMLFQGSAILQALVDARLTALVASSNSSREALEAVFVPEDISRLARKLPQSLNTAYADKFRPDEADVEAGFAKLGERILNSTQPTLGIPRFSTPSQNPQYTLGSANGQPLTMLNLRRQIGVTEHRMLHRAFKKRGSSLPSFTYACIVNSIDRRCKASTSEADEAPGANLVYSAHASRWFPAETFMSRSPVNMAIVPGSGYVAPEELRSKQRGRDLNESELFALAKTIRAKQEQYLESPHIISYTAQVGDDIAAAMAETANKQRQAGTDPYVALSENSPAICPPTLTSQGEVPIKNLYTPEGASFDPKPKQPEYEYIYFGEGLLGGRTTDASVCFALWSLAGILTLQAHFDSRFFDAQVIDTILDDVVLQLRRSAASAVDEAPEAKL

CCCCCCCCCCCC(=O)SCCNC(=O)CCNC(=O)[C@H](O)C(C)(C)COP(=O)(O)OP(=O)(O)OC[C@H]1O[C@@H](n2cnc3c(N)ncnc32)[C@H](O)[C@@H]1OP(=O)(O)O [lauroyl-CoA]
DTNB (Ellman) assay of CoA release, absorbance at 412 nm: Purified PtMAC2p catalyzes the transfer of a fatty acid of lauroyl-CoA (C12)

Reference: PMC10619693, “Structural identification of catalytic His158 of PtMAC2p from Pseudozyma tsukubaensis, an acyltransferase involved in mannosylerythritol lipids formation” (Frontiers in Bioengineering and Biotechnology, 2023)
